The structures appear in SMILES notation. Counter-ions that a name gives are not always drawn. Some results are limits rather than exact numbers.

In one experiment the test system is A431 cells. Put plainly: Cellular proliferation (Alamar Blue) assay, A431. The format is cell-based. Conditions: Homo sapiens, A-431; A431 cells, 72 hr, Alamar Blue; read-out: A431 IC50. Summed up:
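Following a 16–18 h pre-incubation, cells received compound or DMSO for 72 h at 37 °C across a 10–0.0005 μM final range. Proliferation was then scored by Alamar Blue fluorescence (540 nm excitation, 590 nm emission) after 3 h.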

Experiment [1] has as its system H1975 cells (L858R_T790M mutant). Put plainly: H1975 proliferation assay. The format is cell-based. Particulars: Homo sapiens, NCI-H1975; read-out: Proliferation_Assay H1975 cells-EC50_nM L858R_T790M_mutant.
Experiment [2] deals with EGFR(D770_N771insSVD) expressing Ba/F3 stable cell line (Homo sapiens, UniProt P00533, DUP768-770, cells depend on it). The experiment in a line: Cellular proliferation (Alamar Blue) assay, EGFR D770_N771insSVD Ba/F3. It counts as cell-based. Particulars: EGFR D770_N771insSVD Ba/F3, 72 hr, read-out: D770 IC50. Summed up:
(§1)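 Ba/F3 lines were seeded at 15,000 cells/well in RPMI with 10% FBS and rested 16–18 h at 37 °C. Compounds were added as 3-fold serial dilutions (final 10–0.0005 μM) for 72 h, then Alamar Blue was added for 3 h and fluorescence read at 540 nm excitation/590 nm emission.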
In general terms: Alamar Blue is a resazurin reagent that responds to reducing activity.

The target of a further experiment is T1, EGFR (T790M/L858R) (Homo sapiens, UniProt P00533, L858R/T790M).
T1 construct: GST; purchased Proqinase
T1 sequence (P00533 25-1210 T790M/L858R): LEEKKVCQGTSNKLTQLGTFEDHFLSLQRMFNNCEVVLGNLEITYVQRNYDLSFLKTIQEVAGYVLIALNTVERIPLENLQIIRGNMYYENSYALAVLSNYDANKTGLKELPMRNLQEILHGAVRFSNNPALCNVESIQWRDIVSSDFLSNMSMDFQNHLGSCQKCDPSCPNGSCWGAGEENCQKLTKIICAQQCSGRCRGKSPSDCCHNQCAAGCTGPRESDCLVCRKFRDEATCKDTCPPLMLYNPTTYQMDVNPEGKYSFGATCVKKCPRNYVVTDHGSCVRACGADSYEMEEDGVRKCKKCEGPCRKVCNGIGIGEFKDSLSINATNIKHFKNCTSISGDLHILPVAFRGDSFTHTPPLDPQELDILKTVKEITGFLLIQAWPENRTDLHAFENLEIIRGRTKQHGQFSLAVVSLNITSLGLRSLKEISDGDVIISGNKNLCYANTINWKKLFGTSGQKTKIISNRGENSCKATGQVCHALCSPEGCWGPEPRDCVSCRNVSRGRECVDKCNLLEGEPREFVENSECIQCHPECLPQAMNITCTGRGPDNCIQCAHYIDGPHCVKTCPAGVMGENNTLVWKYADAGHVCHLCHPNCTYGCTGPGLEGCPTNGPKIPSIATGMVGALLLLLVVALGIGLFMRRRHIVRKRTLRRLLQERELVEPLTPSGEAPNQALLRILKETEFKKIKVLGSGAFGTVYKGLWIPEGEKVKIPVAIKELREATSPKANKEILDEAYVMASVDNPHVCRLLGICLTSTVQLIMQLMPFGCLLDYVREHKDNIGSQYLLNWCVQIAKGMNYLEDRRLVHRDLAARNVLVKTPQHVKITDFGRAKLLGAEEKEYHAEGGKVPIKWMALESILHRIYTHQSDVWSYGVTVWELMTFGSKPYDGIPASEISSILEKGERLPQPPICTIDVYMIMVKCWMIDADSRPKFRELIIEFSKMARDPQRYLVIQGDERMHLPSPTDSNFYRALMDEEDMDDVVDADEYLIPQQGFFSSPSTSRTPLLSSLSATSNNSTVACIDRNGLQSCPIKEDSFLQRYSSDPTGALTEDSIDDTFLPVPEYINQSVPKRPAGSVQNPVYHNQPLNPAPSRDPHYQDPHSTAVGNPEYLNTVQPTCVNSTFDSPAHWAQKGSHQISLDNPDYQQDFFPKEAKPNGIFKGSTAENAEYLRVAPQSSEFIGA
Put plainly: EGFR L858R/T790M enzyme inhibition assay (HTRF). It counts as biochemical. Conditions: 5 μM ATP, 60 min, read-out: EGFR_L858R T790M_IC50_nM. How it is done: Example 2: EGFR L858R & Del19/T790M Assay Protocol (to Find the IC50 for the Compounds Using HTRF Method)
Reagents for Enzyme Assay:
• 1. Enzyme Assay Buffer: 60 mM HEPES (pH 7.4), 50 mM NaCl, 20 mM MgCl2, 5 mM MnCl2, filtered using 0.2 μm pore size, stored at 4° C. • Supplements (added fresh to the enzyme buffer): 1M DTT stock was made, 5% BSA stock and 0.1M Na3OV4 stored at 4° C. Enzyme assay buffer 50 mL, 1 M DTT 100 μL, 5% BSA 500 μL, 0.1 M Na3OV4 50 μL. • 2. GST-hEGFR (L858R), active: EGFR (T790M/L858R), active (Proqinase), 3.6 μM stock; 2.5 nM in final assay. • 3. Gastrin Precusor-Biotinylated: Gastrin precursor (Tyr87) biotinylated peptide, EEAY*GWM, Cell Signaling Tech 1310, Lot-7, Want final 0.5 μM in assay. • 4. ATP: 10 mM stock in 100 μL Enzyme assay buffer pH 7.4 prepared freshly, want 5 μM in final assay. • 5. Test compounds: Powders were dissolved in 100% DMSO and made up to a final stock concentration of 10 mM (volume in μL to add for 10 mM=mg powder X 10^5/MW). Final compound concentration in the assay plate started at 10 μM.
• 1. HTRF buffer: 50 mM Tris —HCl, pH-7.5, 100 mM NaCl, 0.1% BSA, 0.05% Tween20, 0.5 mM EDTA, filtered using 0.2 μm pore size, stored at 4° C. • Phycolink® Streptavidin-Allophycocyanin (SA-APC) Prozyme, Cat. #PJ25S, Lot #896 085, 2.06 mg/mL, APC concentration is 11.6 μM, streptavidin concentration is 15.5 μM. Want 12 nM final in assay (based on streptavidin concentration). • 2. (Europium) Eu-W1024 Anti-phosphotyrosine (PT-66) Antibody: Perkin Elmer (Product Number: AD0068), monoclonal IgG1 that recognizes phosphotyrosine peptide 100 μg/ml stock. Want 0.1 nM final in assay.
• 1. The compound dilution was made by TECAN as per the above scheme. • 2. 16 μL of diluted compound was added to the assay plate by using TECAN. • 3. 10 μL of enzyme mix was added to each well except mins. • 4. 20 μL of substrate and ATP mix were added into each well of the assay plate, manually. • 5. The plate was incubated on a laboratory shaker at room temperature for 60 min. • 6. Meanwhile, the HTRF mix was prepared and 75 μL was added to the HTRF plate. • 7. When the incubation was over, 10 μL of the reaction mixture was transferred to the HTRF assay plate and incubated on a laboratory shaker for 30 min at room temperature. • 8. The reading was taken in Pherastar (ext 337 nm, Em 665 & 620 nm). • 9. The results were analyzed using Graphpad prism after calculation of the z factor, signal window and % inhibition to get the IC50.
Background: In TR-FRET formats the signal depends on donor and acceptor labels being close together.

Experiment [3] addresses EGFR (A767_dupASV) expressing Ba/F3 stable cell line (Homo sapiens, UniProt P00533, DUP767-769, cells depend on it). The experiment in a line: Cellular proliferation (Alamar Blue) assay, EGFR A767_dupASV Ba/F3. It counts as cell-based. Particulars: EGFR A767_dupASV Ba/F3, 72 hr, read-out: A767 IC50. Summed up:
as §1

The target in experiment [4] is HER2 (A775_G776insYVMA) expressing Ba/F3 stable cell line (Homo sapiens, UniProt P04626, DUP772-775, cells depend on it). The experiment in a line: Cellular proliferation (Alamar Blue) assay, HER2 YVMA Ba/F3. The format is cell-based. Particulars: HER2 A775_G776insYVMA Ba/F3, 72 hr, read-out: YVMA IC50. Summed up:
as §1

Chain of EGFR (A767_dupASV) expressing Ba/F3 stable cell line (P00533 with tags, fused parts or gaps DUP767-769): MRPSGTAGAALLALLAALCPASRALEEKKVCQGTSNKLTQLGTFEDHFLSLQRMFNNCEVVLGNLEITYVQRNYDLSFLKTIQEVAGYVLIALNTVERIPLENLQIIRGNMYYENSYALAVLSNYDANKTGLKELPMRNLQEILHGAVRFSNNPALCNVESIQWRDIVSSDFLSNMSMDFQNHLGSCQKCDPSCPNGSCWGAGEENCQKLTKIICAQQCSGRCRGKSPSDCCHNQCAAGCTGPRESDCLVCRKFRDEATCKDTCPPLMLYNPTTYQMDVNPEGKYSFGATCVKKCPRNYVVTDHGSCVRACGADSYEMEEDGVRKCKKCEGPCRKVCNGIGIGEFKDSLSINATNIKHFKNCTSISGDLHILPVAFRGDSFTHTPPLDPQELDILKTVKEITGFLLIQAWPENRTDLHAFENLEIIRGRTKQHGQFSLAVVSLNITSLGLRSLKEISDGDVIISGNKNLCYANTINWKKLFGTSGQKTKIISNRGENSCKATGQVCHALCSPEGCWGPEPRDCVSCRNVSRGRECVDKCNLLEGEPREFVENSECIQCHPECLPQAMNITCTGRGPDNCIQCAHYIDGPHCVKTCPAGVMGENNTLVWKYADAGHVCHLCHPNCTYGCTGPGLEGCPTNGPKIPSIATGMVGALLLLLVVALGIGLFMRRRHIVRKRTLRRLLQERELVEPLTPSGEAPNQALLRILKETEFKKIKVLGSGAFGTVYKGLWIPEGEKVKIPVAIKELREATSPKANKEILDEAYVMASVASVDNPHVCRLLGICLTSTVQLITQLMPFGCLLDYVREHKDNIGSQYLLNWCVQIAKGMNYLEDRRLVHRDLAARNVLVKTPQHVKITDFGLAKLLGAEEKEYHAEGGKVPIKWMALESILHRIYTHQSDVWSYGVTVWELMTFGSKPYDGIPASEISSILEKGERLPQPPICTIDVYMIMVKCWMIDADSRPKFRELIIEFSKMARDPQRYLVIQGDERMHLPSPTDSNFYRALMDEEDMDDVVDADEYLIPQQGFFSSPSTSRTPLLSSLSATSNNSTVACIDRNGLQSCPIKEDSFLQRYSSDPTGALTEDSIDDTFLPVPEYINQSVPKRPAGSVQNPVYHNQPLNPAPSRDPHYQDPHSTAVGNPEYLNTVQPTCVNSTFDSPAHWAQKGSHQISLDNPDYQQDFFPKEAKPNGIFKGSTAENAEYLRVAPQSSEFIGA
Chain of HER2 (A775_G776insYVMA) expressing Ba/F3 stable cell line (P04626 with tags, fused parts or gaps DUP772-775): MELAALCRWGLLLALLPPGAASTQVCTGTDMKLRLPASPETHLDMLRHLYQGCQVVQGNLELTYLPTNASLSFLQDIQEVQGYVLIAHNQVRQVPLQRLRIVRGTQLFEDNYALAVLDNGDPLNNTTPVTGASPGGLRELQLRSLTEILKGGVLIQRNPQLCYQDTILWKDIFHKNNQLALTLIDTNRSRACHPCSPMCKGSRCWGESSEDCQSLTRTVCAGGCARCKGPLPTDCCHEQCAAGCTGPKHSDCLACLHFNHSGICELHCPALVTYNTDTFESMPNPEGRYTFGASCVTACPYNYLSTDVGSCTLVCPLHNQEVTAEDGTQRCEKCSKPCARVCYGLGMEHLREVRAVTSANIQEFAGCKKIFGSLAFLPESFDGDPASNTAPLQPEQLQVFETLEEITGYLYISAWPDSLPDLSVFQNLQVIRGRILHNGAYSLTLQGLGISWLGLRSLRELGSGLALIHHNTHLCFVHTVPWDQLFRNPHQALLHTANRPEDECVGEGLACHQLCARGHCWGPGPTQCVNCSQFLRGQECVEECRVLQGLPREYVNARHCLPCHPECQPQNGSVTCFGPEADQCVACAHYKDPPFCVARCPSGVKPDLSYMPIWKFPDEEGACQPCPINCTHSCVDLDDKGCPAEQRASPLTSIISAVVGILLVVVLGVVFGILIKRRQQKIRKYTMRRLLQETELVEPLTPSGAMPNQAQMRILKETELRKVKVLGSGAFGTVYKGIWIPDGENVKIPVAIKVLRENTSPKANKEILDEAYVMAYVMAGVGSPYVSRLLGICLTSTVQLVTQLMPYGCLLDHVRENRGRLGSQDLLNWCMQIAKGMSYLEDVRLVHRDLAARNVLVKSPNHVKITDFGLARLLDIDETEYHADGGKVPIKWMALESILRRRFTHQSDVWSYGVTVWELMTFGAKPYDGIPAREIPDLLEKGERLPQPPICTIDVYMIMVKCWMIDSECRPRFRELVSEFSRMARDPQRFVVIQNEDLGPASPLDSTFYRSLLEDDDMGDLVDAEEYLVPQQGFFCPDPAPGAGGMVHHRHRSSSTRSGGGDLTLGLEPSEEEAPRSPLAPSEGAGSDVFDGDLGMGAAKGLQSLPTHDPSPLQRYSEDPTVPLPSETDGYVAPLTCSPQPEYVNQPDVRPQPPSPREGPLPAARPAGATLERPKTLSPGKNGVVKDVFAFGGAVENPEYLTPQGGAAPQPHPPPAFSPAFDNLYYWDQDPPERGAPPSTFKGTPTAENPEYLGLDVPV
Chain of EGFR(D770_N771insSVD) expressing Ba/F3 stable cell line (P00533 with tags, fused parts or gaps DUP768-770): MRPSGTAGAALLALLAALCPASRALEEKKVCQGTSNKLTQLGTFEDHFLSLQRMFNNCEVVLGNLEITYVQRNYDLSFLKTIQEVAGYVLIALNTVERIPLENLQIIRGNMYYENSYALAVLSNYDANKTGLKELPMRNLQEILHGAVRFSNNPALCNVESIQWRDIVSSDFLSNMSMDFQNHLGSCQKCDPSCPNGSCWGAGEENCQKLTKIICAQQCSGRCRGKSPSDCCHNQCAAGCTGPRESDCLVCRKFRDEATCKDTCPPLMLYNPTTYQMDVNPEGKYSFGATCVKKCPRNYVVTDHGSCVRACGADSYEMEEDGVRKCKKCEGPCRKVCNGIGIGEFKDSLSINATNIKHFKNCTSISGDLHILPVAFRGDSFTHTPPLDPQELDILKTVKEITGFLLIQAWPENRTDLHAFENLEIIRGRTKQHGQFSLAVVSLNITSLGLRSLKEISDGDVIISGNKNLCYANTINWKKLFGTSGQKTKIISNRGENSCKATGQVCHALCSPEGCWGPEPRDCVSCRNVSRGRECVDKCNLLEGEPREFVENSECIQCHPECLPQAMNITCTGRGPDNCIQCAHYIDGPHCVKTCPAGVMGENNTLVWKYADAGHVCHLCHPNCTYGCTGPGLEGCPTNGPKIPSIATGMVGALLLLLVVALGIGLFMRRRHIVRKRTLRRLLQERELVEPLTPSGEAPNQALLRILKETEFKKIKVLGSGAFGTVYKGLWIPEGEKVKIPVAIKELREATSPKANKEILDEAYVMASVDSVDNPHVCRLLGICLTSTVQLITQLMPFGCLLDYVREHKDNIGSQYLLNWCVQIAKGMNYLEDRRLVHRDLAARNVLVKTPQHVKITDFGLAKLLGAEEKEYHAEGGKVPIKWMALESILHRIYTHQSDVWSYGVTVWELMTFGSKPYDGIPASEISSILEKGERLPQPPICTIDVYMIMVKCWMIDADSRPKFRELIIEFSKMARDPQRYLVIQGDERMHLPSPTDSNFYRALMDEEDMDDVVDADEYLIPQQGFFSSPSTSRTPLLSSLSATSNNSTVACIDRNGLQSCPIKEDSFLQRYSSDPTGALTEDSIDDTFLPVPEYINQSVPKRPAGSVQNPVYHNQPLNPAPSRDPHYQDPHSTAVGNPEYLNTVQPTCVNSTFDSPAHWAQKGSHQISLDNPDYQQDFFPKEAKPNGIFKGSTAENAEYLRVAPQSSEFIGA

Consider `CC(c1ccccc1)N1Cc2cnc(Nc3cnn(C)c3)nc2N(c2cccc(NC(=O)/C=C/CN(C)C)c2)C1=O` (racemic) [Compound 10, (E)-4-(dimethylamino)-N-(3-(7-((1-methyl-1H-pyrazol-4-yl)amino)-2-oxo-3-(1-phenylethyl)-3,4-dihydropyrimido[4,5-d]pyrimidin-1(2H)-yl)phenyl)but-2-enamide], for which the IC50 in the experiment on A431 cells turned out to be 638 nM; at EGFR (T790M/L858R) it was 4 nM. In addition, the EC50 in experiment [1] was found to be 4.5 nM. The GI50 was determined as 108 nM in experiment [2] and 105 nM in experiment [3].
Taken in the same sequence, the figures for `C=CC(=O)N1CCC(N2C(=O)N(Cc3ccccc3)Cc3cnc(Nc4cn(C)nc4Cl)nc32)C1` (racemic) [Compound 37, 1-(1-acryloylpyrrolidin-3-yl)-3-benzyl-7-((3-chloro-1-methyl-1H-pyrazol-4-yl)amino)-3,4-dihydropyrimido[4,5-d]pyrimidin-2(1H)-one] were at least 10000 nM, 167 nM, 372 nM, at least 10000 nM and at least 10000 nM.
Take `C=CC(=O)N1CC[C@H](N2C(=O)N(Cc3ccccc3)Cc3cnc(Nc4cn(C)nc4Cl)nc32)C1` (single isomer, unassigned) [Compound 39]: the IC50 is at least 10000 nM in the experiment with A431 cells and 112 nM at EGFR (T790M/L858R). Besides, in experiment [1], the EC50 came to 637 nM. In addition, the values for the GI50 in experiment [2] and in experiment [3] were 9350 nM and at least 10000 nM, respectively.
In the case of `C=CC(=O)Nc1cccc(N2C(=O)N(Cc3ccccc3)Cc3cnc(Nc4cnn(C5CC5)c4)nc32)c1` [Compound 5, N-(3-(3-benzyl-7-((1-cyclopropyl-1H-pyrazol-4-yl)amino)-2-oxo-3,4-dihydropyrimido[4,5-d]pyrimidin-1(2H)-yl)phenyl)acrylamide], in experiment [1], the EC50 came out at 5.7 nM. For the same compound, the IC50 on EGFR (T790M/L858R) was found to be 1 nM.
Regarding `CN(C)C/C=C/C(=O)Nc1cccc(N2C(=O)N(Cc3ccccc3)Cc3cnc(Nc4cnn(C5CC5)c4)nc32)c1` [Compound 7, (E)-N-(3-(3-benzyl-7-((1-cyclopropyl-1H-pyrazol-4-yl)amino)-2-oxo-3,4-dihydropyrimido[4,5-d]pyrimidin-1(2H)-yl)phenyl)-4-(dimethylamino)but-2-enamide], in experiment [1], the EC50 turned out to be 9.3 nM. In addition, the IC50 on EGFR (T790M/L858R) came out at 6 nM.
For `C=CC(=O)Nc1cccc(N2C(=O)N(c3ccc(F)cc3)Cc3cnc(Nc4cnn(C)c4)nc32)c1` [Compound 17, N-(3-(3-(4-fluorophenyl)-7-((1-methyl-1H-pyrazol-4-yl)amino)-2-oxo-3,4-dihydropyrimido[4,5-d]pyrimidin-1(2H)-yl)phenyl)acrylamide] the same measures were 0.7 nM and 0.5 nM.
For the compound `Cc1cnc(Nc2ncc3c(n2)N(c2cccc(NC(=O)/C=C/CN(C)C)c2)C(=O)N(Cc2ccccc2)C3)s1` [Compound 19, (E)-N-(3-(3-benzyl-7-((5-methylthiazol-2-yl)amino)-2-oxo-3,4-dihydropyrimido[4,5-d]pyrimidin-1(2H)-yl)phenyl)-4-(dimethylamino)but-2-enamide], in experiment [1], the EC50 came out at 16 nM. The IC50 at EGFR (T790M/L858R) was 6 nM.
Taken in the same sequence, the figures for `CN(C)C/C=C/C(=O)Nc1cccc(N2C(=S)N(c3ccccc3)Cc3cnc(Nc4cn(C)nc4Cl)nc32)c1` [Compound 51, (E)-N-(3-(7-((3-chloro-1-methyl-1H-pyrazol-4-yl)amino)-3-phenyl-2-thioxo-3,4-dihydropyrimido[4,5-d]pyrimidin-1(2H)-yl)phenyl)-4-(dimethylamino)but-2-enamide] were 9.8 nM and 8 nM.
Take `CC#CC(=O)Nc1cccc(N2C(=O)N(c3ccccc3)Cc3cnc(Nc4cn(C)nc4Cl)nc32)c1` [Compound 125, N-(3-(7-((3-chloro-1-methyl-1H-pyrazol-4-yl)amino)-2-oxo-3-phenyl-3,4-dihydropyrimido[4,5-d]pyrimidin-1(2H)-yl)phenyl)but-2-ynamide]: the IC50 with A431 cells is at least 10000 nM. The GI50 is 338 nM in experiment [2], 445 nM in experiment [4] and 269 nM in experiment [3].
Consider `C=CC(=O)Nc1ccc(F)c(N2C(=O)N(c3ccccc3)Cc3cnc(Nc4cn(C)nc4Cl)nc32)c1` [Compound 128, N-(3-(7-((3-chloro-1-methyl-1H-pyrazol-4-yl)amino)-2-oxo-3-phenyl-3,4-dihydropyrimido[4,5-d]pyrimidin-1(2H)-yl)-4-fluorophenyl)acrylamide trifluoroacetate salt], for which, in the experiment on A431 cells, the IC50 is at least 10000 nM. Moreover, the GI50 in experiment [2] is 12 nM; in experiment [4] it was 24 nM; in experiment [3], 11 nM.
Taken in the same sequence, the figures for `C=CC(=O)Nc1cccc(N2C(=O)N(c3ccccc3)Cc3cnc(Nc4cn(C5CCC(O)CC5)nc4Cl)nc32)c1` (stereo not shown) [Compound 129, N-(3-(7-((3-chloro-1-(4-hydroxycyclohexyl)-1H-pyrazol-4-yl)amino)-2-oxo-3-phenyl-3,4-dihydropyrimido[4,5-d]pyrimidin-1(2H)-yl)phenyl)acrylamide trifluoroacetate salt] were at least 10000 nM, 333 nM, 312 nM and 157 nM.
Taken in the same sequence, the figures for `C=CC(=O)Nc1ccc(N2C(=O)N(c3ccccc3)Cc3cnc(Nc4cn(C)nc4Cl)nc32)cc1` [Compound 131, N-(4-(7-((3-chloro-1-methyl-1H-pyrazol-4-yl)amino)-2-oxo-3-phenyl-3,4-dihydropyrimido[4,5-d]pyrimidin-1(2H)-yl)phenyl)acrylamide] were 3510 nM, 765 nM, 1130 nM and 373 nM.
For `O=C(/C=C/CF)Nc1cccc(N2C(=O)N(c3ccccc3)Cc3cnc(Nc4cccnc4F)nc32)c1` [Compound 135, (E)-4-fluoro-N-(3-(7-((2-fluoropyridin-3-yl)amino)-2-oxo-3-phenyl-3,4-dihydropyrimido[4,5-d]pyrimidin-1(2H)-yl)phenyl)but-2-enamide] the same measures were over 10000 nM, 120 nM, 294 nM and 43 nM.
Consider `C=CC(=O)Nc1cccc(N2C(=O)N(c3ccccc3)Cc3cnc(Nc4cn(C5COC5)nc4Cl)nc32)c1` [Compound 136, N-(3-(7-((3-chloro-1-(oxetan-3-yl)-1H-pyrazol-4-yl)amino)-2-oxo-3-phenyl-3,4-dihydropyrimido[4,5-d]pyrimidin-1(2H)-yl)phenyl)acrylamide], for which, in the experiment on A431 cells, the IC50 is over 10000 nM. Further, the GI50 is 29 nM in experiment [2], 63 nM in experiment [4] and 15 nM in experiment [3].

The values above are taken from patent US20230027026A1, “FUSED PYRIMIDINE COMPOUNDS, COMPOSITIONS AND MEDICINAL APPLICATIONS THEREOF” (JUBILANT BIOSYS LIMITED, priority 2019, published 2023).
